# Data: ChEMBL document CHEMBL1146941, “Synthesis of pyrazinamide Mannich bases and its antitubercular properties” (2006)
# Test system: Mycobacterium tuberculosis
# Assay: Antimycobacterial activity against multi drug resistant Mycobacterium tuberculosis
# Assay type: functional
row,Compound,MIC90 [µg/mL]
1,CN1CCN(CNC(=O)c2cnccn2)CC1,> 25
2,O=C(NCN1CCN(c2ccc(F)cc2)CC1)c1cnccn1,1.76
3,O=C(NCN1CCN(c2ccccn2)CC1)c1cnccn1,> 25
4,O=C(NCN1CCN(c2ncccn2)CC1)c1cnccn1,> 25
5,O=C(NCN1CCN(c2cccc(Cl)c2)CC1)c1cnccn1,6.25
6,CCn1cc(C(=O)O)c(=O)c2cc(F)c(N3CCN(CNC(=O)c4cnccn4)CC3)cc21,0.78
7,O=C(NCN1CCN(c2ccc(C(F)(F)F)cc2)CC1)c1cnccn1,1.76
8,O=C(NCN1CCN(c2cc3c(cc2F)c(=O)c(C(=O)O)cn3C2CC2)CC1)c1cnccn1,0.78
9,COc1cccc(N2CCN(CNC(=O)c3cnccn3)CC2)c1,> 25
10,O=C(NCN1CCN(Cc2ccccc2)CC1)c1cnccn1,> 25
11,NC(=O)c1cnccn1 [PYRAZINAMIDE],> 25
12,COc1ccc(N2CCN(CNC(=O)c3cnccn3)CC2)cc1,> 25
13,COc1ccccc1N1CCN(CNC(=O)c2cnccn2)CC1,> 25
14,CCn1cc(C(=O)O)c(=O)c2cc(F)c(N3CCN(CNC(=O)c4cnccn4)CC3)c(F)c21,0.78
15,O=C(NCN1CCN(c2ccc([N+](=O)[O-])cc2)CC1)c1cnccn1,6.25
16,O=C(NCN1CCN(c2ccc(Cl)cc2)CC1)c1cnccn1,12.5
17,O=C(NCN1CCN(c2ccccc2)CC1)c1cnccn1,> 25
